This is an account of results in patent US7071180B2, “Certain arylaliphatic and heteroaryl-aliphatic piperazinyl pyrazines and their use in the treatment of serotonin-related diseases” (Biovitrum AB, priority 1999, dated 2006).

The Ki is a measure of affinity in units of concentration, obtained from inhibition or displacement. A lower Ki goes with tighter binding.

Where two headings read alike, the source gives them in different places.

One test addresses T1, human 5-HT2c receptor (Homo sapiens, UniProt P28335).
T1 construct: expressed in transfected cells
T1 sequence (P28335 33-458): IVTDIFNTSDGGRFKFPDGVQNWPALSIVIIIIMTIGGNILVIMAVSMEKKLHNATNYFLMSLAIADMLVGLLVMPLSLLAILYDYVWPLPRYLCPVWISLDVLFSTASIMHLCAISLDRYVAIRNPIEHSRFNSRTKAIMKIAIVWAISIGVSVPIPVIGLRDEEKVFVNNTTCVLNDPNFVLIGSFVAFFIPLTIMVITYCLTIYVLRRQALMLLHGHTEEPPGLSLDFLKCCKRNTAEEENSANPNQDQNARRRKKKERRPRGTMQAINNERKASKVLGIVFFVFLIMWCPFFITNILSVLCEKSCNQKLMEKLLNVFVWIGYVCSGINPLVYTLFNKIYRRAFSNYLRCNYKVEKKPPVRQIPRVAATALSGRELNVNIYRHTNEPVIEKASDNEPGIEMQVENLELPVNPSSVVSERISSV
In words: 5-HT2c receptor affinity assay (displacement of 3H-labelled 5-HT, Scintillation Proximity Assay). Conditions: displacement of 3H-5-HT from membranes of transfected HEK293 cells expressing human 5-HT2c receptor; non-specific binding 5 μM mianserin. The method, then: The 5-HT2c receptor affinity of compounds in the Examples was determined in competition experiments, where the ability of each compound in serial dilution to displace ^3H-labelled 5-HT, bound to membranes prepared from a transfected HEK293 cell line stably expressing the human 5-HT2c receptor protein was monitored by Scintillation Proximity Assay technology. Non-specific binding was defined using 5 μM mianserin. Typically, the 5HT2c receptor affinity values (Ki, nM) were in the range of 1 nM to 1500 nM.

For test [1] the following is noted: cited from earlier work.
The target of test [2] is T2, 5-HT2c receptor (Mus musculus, UniProt P34968).
T2 construct: mice that express the normal 5-HT2c receptor; host or cells: mice (in vivo)
T2 sequence (P34968 33-459): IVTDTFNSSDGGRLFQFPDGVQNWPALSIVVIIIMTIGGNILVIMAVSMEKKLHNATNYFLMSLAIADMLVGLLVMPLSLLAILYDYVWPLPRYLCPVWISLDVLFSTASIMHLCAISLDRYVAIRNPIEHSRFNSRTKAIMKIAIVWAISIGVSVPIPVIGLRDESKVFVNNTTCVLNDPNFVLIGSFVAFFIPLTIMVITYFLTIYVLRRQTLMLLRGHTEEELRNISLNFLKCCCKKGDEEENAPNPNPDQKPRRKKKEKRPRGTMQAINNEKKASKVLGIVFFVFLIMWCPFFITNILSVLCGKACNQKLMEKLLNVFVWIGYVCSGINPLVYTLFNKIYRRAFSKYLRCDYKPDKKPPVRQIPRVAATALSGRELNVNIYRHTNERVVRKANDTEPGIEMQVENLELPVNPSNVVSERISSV
Conditions: mice that express the normal 5-HT2c receptor; cited from earlier work.

Test [3] relates to 5-HT2c receptor. Particulars: mice expressing the mutated inactive form of the 5-HT2c receptor; cited from earlier work.

As for `C[C@@H]1CNCCN1c1nccnc1OCCOc1cccnc1Cl` [Example 194, (2R)-1-(3-{2-[(2-Chloro-3-pyridinyl)oxy]ethoxy}-2-pyrazinyl)-2-methylpiperazine], the Ki on human 5-HT2c receptor amounted to 5 nM. This counts as single-digit nanomolar.

For `c1ccc(COc2cccc(OCCOc3nccnc3N3CCNCC3)c2)cc1` [Example 231, 2-{2-[3-(Benzyloxy)phenoxy]ethoxy}-3-(1-piperazinyl)pyrazine], the Ki on human 5-HT2c receptor was found to be 12 nM. This Ki is about 2.4-fold higher than that of the compound before.

As to `CCN[C@@H](C)Cc1cccc(C(F)(F)F)c1` [dexfenfluramine], in test [1] (controlled studies), the body weight effect result is recorded as “weight reduction”.

With `CNCCC(Oc1ccc(C(F)(F)F)cc1)c1ccccc1` (stereo not shown) [fluoxetine], the body weight effect entry in test [1] (controlled studies) is on record as “weight reduction”.

Take `Clc1cccc(N2CCNCC2)c1` [mCPP, m-chlorophenylpiperazine]: the body weight effect result at 5-HT2c receptor [2] is “causes weight loss”; in the test with 5-HT2c receptor [3], “lacks activity”; in test [1] (obese subjects, after 2 weeks of treatment), “slight but sustained reduction in body weight”.
